# Experimental data taken from patent US10968215B2 (SHANGHAI HAIHE PHARMACEUTICAL CO., LTD., priority 2016, dated 2021).
# Read-outs that look alike come from different tables or passages of the source.
# Target: PRC2 complex (EZH2 Y641F/EED/SUZ12/RbAp48/AEBP2) (Homo sapiens (Human), UniProt Q15910, Y641F)
# Test: Activity of a compound to PRC2 complex (EZH2 Y641F), HTRF
# [1] = read-out: IC50 (EZH2_Y641F), EZH2 Y641F PRC2 complex, HTRF, class symbols
# Sequence of PRC2 complex (EZH2 Y641F/EED/SUZ12/RbAp48/AEBP2) (Q15910 whole entry Y641F): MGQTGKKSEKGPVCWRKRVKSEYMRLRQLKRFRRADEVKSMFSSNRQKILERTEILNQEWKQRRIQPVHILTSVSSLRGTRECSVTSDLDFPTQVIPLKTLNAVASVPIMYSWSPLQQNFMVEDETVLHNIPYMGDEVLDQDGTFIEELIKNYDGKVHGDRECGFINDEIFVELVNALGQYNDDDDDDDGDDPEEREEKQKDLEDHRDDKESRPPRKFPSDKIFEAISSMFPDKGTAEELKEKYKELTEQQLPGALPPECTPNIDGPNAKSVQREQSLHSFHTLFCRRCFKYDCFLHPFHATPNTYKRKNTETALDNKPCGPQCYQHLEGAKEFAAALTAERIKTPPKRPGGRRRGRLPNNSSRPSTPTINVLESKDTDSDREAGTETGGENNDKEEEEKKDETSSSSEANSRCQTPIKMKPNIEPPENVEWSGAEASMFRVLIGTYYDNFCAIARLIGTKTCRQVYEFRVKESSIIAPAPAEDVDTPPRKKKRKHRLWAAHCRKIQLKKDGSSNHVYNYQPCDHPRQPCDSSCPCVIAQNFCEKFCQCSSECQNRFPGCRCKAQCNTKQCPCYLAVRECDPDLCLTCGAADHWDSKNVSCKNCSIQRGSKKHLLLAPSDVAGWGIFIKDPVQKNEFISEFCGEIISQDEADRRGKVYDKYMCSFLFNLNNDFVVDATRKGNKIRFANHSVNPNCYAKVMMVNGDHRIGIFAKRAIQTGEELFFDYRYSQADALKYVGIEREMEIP
# Sequence of PRC2 complex (EZH2 Y641F/EED/SUZ12/RbAp48/AEBP2) (O75530 whole entry partner): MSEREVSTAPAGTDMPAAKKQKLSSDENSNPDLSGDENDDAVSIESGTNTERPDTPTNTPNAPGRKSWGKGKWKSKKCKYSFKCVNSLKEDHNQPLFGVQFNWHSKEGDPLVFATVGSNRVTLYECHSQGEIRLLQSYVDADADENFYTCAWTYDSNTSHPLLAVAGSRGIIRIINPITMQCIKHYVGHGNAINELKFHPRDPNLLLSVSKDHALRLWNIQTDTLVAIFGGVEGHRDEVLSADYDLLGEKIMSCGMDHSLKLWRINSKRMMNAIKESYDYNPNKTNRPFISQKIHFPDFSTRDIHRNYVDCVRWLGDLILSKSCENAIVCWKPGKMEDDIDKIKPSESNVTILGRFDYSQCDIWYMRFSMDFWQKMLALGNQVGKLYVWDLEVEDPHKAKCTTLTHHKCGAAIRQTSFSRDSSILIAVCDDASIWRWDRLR
# Sequence of PRC2 complex (EZH2 Y641F/EED/SUZ12/RbAp48/AEBP2) (Q15022 whole entry partner): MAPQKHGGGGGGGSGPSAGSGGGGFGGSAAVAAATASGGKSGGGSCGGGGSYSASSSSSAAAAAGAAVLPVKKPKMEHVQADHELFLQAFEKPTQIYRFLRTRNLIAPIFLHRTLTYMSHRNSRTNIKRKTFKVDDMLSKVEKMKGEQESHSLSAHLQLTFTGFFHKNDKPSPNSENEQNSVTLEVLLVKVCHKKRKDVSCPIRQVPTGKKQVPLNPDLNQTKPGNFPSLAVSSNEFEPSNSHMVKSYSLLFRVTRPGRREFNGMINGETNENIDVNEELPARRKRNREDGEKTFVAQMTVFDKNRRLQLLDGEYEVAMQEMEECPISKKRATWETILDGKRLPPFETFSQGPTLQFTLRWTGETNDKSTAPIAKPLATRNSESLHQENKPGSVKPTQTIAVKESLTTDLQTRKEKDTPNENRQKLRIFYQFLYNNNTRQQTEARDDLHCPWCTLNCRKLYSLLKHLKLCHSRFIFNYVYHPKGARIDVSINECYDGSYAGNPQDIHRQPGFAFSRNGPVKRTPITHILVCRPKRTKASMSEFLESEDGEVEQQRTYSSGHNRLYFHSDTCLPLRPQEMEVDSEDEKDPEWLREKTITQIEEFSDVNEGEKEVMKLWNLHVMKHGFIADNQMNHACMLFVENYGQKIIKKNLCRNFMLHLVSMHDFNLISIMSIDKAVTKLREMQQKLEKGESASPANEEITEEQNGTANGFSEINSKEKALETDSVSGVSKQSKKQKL
# Sequence of PRC2 complex (EZH2 Y641F/EED/SUZ12/RbAp48/AEBP2) (Q09028 whole entry partner): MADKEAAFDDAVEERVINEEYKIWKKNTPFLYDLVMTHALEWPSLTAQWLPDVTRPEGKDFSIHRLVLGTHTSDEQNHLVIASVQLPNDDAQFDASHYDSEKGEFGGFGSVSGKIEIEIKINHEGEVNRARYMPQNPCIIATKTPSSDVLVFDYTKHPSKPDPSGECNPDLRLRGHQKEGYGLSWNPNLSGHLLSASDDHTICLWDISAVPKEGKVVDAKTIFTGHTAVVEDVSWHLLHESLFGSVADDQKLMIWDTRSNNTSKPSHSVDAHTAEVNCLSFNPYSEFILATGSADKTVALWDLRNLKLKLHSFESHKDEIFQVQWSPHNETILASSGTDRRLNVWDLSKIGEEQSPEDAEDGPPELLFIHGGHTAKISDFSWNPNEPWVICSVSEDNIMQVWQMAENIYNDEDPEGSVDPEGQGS
# Sequence of PRC2 complex (EZH2 Y641F/EED/SUZ12/RbAp48/AEBP2) (Q6ZN18 whole entry partner): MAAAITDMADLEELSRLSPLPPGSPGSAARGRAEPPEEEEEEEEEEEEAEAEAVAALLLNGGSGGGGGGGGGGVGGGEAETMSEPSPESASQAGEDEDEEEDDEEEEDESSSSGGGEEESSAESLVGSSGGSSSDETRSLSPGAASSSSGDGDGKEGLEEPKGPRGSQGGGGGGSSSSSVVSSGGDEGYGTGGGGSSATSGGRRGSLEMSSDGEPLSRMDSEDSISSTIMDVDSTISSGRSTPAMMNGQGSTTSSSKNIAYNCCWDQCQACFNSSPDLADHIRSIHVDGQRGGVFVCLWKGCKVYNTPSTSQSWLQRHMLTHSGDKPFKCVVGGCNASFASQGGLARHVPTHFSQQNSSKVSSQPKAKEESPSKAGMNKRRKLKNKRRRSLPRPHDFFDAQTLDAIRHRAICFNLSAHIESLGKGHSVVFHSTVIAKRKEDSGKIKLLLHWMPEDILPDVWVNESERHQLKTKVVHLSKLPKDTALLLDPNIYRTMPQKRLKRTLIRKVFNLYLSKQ
IC50 [1],IC50,Compound
< 0.1 µM,–,COc1cc(C)[nH]c(=O)c1CNC(=O)c1cc2c(-c3cc(C)nc(C)c3)ccn2c(C(C)N2CCN(CC(F)(F)F)CC2)c1C (centres unmarked) [Compound 173]
< 0.1 µM,–,"N-((4,6-dimethyl-2-oxo-1,2-dihydropyridin-3-yl)methyl)-2-(3-((dimethylamino)methyl)phen yl))-6-methyl-5-(1-morpholineethyl)indolizine-7-amide [Example 74]"
0.1 to 1 µM,–,"CCN1CCN(C(C)c2c(C)c(C(=O)NCc3c(C)cc(C)[nH]c3=O)cc3cc(Br)cn23)CC1 (centres unmarked) [Example 98, N-((4,6-dimethyl-2-oxo-1,2-dihydropyridin-3-yl)methyl)-6-methyl-5-(1-(4-methylpiperazine)-1-ethyl)-2-bromoindolizine-7-carboxamide]"

# Further lines, the compound ahead of its results:
Compound,IC50 [1],IC50
"C=C(C)COC(C)c1c(C)c(C(=O)NCc2c(C)cc(C)[nH]c2=O)cc2cccn12 (centres unmarked) [Example 5, N-((4,6-Dimethyl-2-oxo-1,2-dihydropyridin-3-yl)methyl)-6-methyl-5-(1-((2-methylallyl)oxy)ethyl)indolizine-7-carboxamide]",0.1 to 1 µM,–
"COC1CCN(C(C)c2c(C)c(C(=O)NCc3c(C)cc(C)[nH]c3=O)cc3cc(Br)cn23)CC1 (centres unmarked) [Example 143, 2-Bromo-N-((4,6-dimethyl-2-oxo-1,2-dihydropyridin-3-yl)methyl)-6-methyl-5-(1-(4-methoxypiperidin-1-yl)ethyl)indolizine-7-carboxamide]",–,0.1 to 1 µM
"Cc1cc(C)c(CNC(=O)c2cc3cc(-c4nccn4C)cn3c(C(C)N3CCOCC3)c2C)c(=O)[nH]1 (centres unmarked) [Example 79, N-((4,6-dimethyl-2-oxo-1,2-dihydropyridin-3-yl)methyl)-6-methyl-2-(1-methyl-1H-imidazole-2-yl)-5-(1-morpholinoethyl)indolizine-7-carboxamide]",–,< 0.1 µM
"COc1cc(-c2ccn3c(C(C)N4CCN(CC(F)(F)F)CC4)c(C)c(C(=O)NCc4c(OC)cc(C)[nH]c4=O)cc23)ccn1 (centres unmarked) [Compound 193, N-((4-methoxy-6-methyl-2-oxo-1,2-dihydropyridin-3-yl)methyl)-1-(2-methoxypyridine-4-yl)-6-methyl-5-(1-(4-(2,2,2-trifluoroethyl)piperazin-1-yl)ethyl)indolizine-7-carboxamide]",< 0.1 µM,–
"COc1cc(-c2cc3cc(C(=O)NCc4c(C)cc(C)[nH]c4=O)c(C)c(C(C)N4CCC(N(C)C)CC4)n3c2)cc(OC)c1OC (centres unmarked) [Example 92, N-((4,6-dimethyl-2-oxo-1,2-dihydropyridin-3-yl)methyl)-5-(1-(4-(dimethylamino)piperidine-1-yl)ethyl)-6-methyl-2-(3,4,5-trimethoxyphenyl)-indolizine-7-carboxamide]",< 0.1 µM,–
"COc1cc(C)[nH]c(=O)c1CNC(=O)c1cc2c(-c3ccnc(Cl)c3)ccn2c([C@H](C)N2CCN(CC(F)(F)F)CC2)c1C (single isomer, unassigned) [Compound 168, (S)-1-(2-chloropyridin-4-yl)-N-((4-methoxy-6-methyl-2-oxo-1,2-dihydropyridine-3-yl)methyl)-6-methyl-5-(1-(4-(2,2,2-trifluoroethyl)piperazin-1-yl)ethyl)indolizine-7-carboxamide or (R) 1-(2-chloropyridin-4-yl)-N-((4-methoxy-6-methyl-2-oxo-1,2-dihydropyridine-3-yl)methyl)-6-methyl-5-(1-(4-(2,2,2-trifluoroethyl)piperazin-1-yl)ethyl)indolizine-7-carboxamide]",0.1 to 1 µM,–
Cc1cc(C)c(CNC(=O)c2cc3cc(Cl)cn3c(C(C)N3CCC(N(C)C)CC3)c2C)c(=O)[nH]1 (centres unmarked) [Example 70],< 0.1 µM,–
"Cc1cc(C)c(CNC(=O)c2cc3cccn3c(C(C)OCC(C)C)c2C)c(=O)[nH]1 (centres unmarked) [Example 6, N-((4,6-Dimethyl-2-oxo-1,2-dihydropyridin-3-yl)methyl)-5-(1-isobutyloxyethyl)-6-methylindolizine-7-carboxamide]",1 to 10 µM,–
